{
  "source": "patent US20220160814A1",
  "about": "“COMPOSITIONS AND METHODS FOR PROTECTING TYPE 2 ALVEOLAR EPITHELIAL CELLS (AEC2)” (Lung Therapeutics, Inc., priority 2019, published 2022)",
  "tested_on": "IPF fibroblasts",
  "assay_type": "cell-based",
  "protocol": "FIGS. 1A-B. CSP7 deactivates IPF lung fibroblasts. IPF fibroblasts were treated with control peptide, TGFβ (a positive control to stimulate collagen), or a single dose of CSP7 and assayed 24 h later using ELISA against human collagen 1α1 (FIG. 1A). A cell titer glo assay was used to label live IPF fibroblasts grown on 96 well plates (FIG. 1B).\nA cell titer glo assay (Promega, G7570) was used to label live IPF fibroblasts grown on 96 well plates. IPF fibroblasts have a senescent phenotype, and as such they release factors that contribute to aberrant wound healing. Inducing apoptosis in IPF fibroblasts may […]. Luminescence was read in a plate reader. […] Luminescence is proportional to living cell number, i.e., a decrease in luminescence correlates with cell death.",
  "note": "Where no end group is shown, it is not given here.",
  "data": [
    {"substance": "FTTFTVT [CSP7, FTTFTVT]", "values": [
      {"measurement": "apoptosis / live cell number (luminescence)", "result": "did not stimulate apoptosis"}
    ]}
  ]
}
